Measurements taken from patent US20210062177A1, “Alginate Lyase” (Ocean University of China, priority 2019, published 2021).
Where two headings read alike, the source gives them in different places.

B1: ScCD6: novel PL-6 family alginate lyase from Streptomyces coelicolor A3(2), 493 amino acids, SEQ ID NO: 1 (protein)
chain: MNRPRLSTYAAITVAAITIAALTTAASALASTGDTSSRTPSGNSTPQANATIVNVSSSTQLTTAMANAVAGQTIVLANGSYSIGKLNAKNGTSSAPITIMAAQQGKAIITGGQLEVLSSSYVTFSGLKWTNSNTLKITSSHHIRLTRNHFRLTESSSLKWIIIQGANSHHNRIDHNLFEEKHQLGNFITIDGSSTQQSQYDLIDYNHFRNIGPRATNEMEAIRVGWSAISKSDGFTTVENNLFENCDGDPEIVSVKSNANTVRYNTFRTSQGSVSLRHGNRSQVHGNFFFGGGKTGTGGVRVYGQDHKIYNNHFEGLTGTGYDAALQLDGGDVDTSGALSSHWRVYRATAVHNTFVNNVSNIEIGANYSLAPVDSLVADNIVVGSSGKLFNELKMPKNMTYAGNIGWPTGSATIGITTGVRTVNPLLAKQGEVYRLGTGSPAVNTASGSYSFLADDMDGQSRSGTADVGADELSTGTVVHKPLNSADVGISAP
modifications: Streptomyces coelicolor

Columns and labels:
ScCD6 = assay: Effects of metal ions and chemical reagents on ScCD6 enzyme activity; assay type: biochemical, Streptomyces coelicolor A3(2); conditions: ScCD6 activity with metal ion/chemical reagent; for Relative enzyme activity %: control = 100.00
Experimental: (§1) Using 0.3% (w/v) sodium alginate as the substrate, in a 200 μL reaction system, after reaction for 20 min and boiling 2 min for inactivating, DNS method was used to determine the content of reducing sugar in the product to characterize the enzyme activity.
(§2) To determine the temperature stability, ScCD6 was incubated at 30° C., 40° C., 50° C. and 60° C., and its residual enzyme activity was determined by sampling at different times. When determining the stabilities of the enzyme under different pH, the enzyme was stored in buffer solution with pH 7.0, 8.0, 9.0 and 10.0 at 4° C., and the residual enzyme activity was determined by sampling at different times. […] In order to investigate the substrate specificity of ScCD6, sodium alginate, poly M and poly G were used as substrates and reacted at 40° C. for 20 min. The content of reducing sugar was determined by DNS method.

[1] = Experimental: as §1, §2
[2] = ScCD6 enzyme activity, reducing sugar by DNS method (optimum temperature and pH); assay type: biochemical
Experimental: as §1, §2

[3] = Product analysis of polysaccharide degradation by ScCD6 (HPLC); assay type: biochemical
Experimental: Further, the concentration of substrate (sodium alginate, poly M, poly G) in the reaction can be 0.3% (w/v). An amount of added enzyme can be 0.6 U. A reaction can be carried out at 30° C., pH 7.0 for 12 hours. The obtained products can be used for HPLC tests.
Using 0.3% (w/v) sodium alginate, poly M and poly G substrates, in a 200 μL reaction system, 0.6 U alginate lyase ScCD6 was added and reacted at 30° C. and pH 7.0 for 12 hours. The reaction product was boiled for 10 min and centrifuged at 10,000 rpm for 10 min to remove the proteins and other impurities in the system. The supernatant was collected and passed through a 0.22 μm filter membrane for HPLC test. The HPLC conditions were as follows: Superdex™ 30 Increase 30/100 Gel column, 0.2 M NH4HCO3 as mobile phase, flow rate of 0.4 mL/min, room temperature (˜25° C.), loading sample volume of 100 μL, UV detection at 235 nm.

[4] = Substrate specificity of ScCD6 (DNS method); assay type: biochemical; conditions: sodium alginate, poly M, poly G; 40° C. for 20 min
Experimental: as §2

| Molecule | effect on the enzyme activity (ScCD6) | Relative enzyme activity % (ScCD6) [%] | other results |
| --- | --- | --- | --- |
| [Ba+2] [Ba^2+] | promote the enzyme activity | 108.96 |  |
| [Ca+2] [Ca^2+] | little effects on the enzyme activity | 101.76 |  |
| [Co+2] [Co^2+] | promote the enzyme activity | 106.89 |  |
| [Cu+2] [Cu^2+] | inhibit the enzyme activity | 86.33 |  |
| [Fe+3] [Fe^3+] | promote the enzyme activity | 110.41 |  |
| [K+] [K^+] | little effects on the enzyme activity | 98.28 |  |
| [Mg+2] [Mg^2+] | inhibit the enzyme activity | 91.64 |  |
| [Mn+2] [Mn^2+] | promote the enzyme activity | 110.91 |  |
| O=C([O-])CN(CCN(CC(=O)[O-])CC(=O)O)CC(=O)O.[Na+].[Na+] [Na2EDTA] | lose the enzyme activity | 1.03 |  |
| [Na+] [Na^+] | little effects on the enzyme activity | 101.15 |  |
| [Ni+2] [Ni^2+] | inhibit the enzyme activity | 85.86 |  |
| CCCCCCCCCCCCOS(=O)(=O)[O-].[Na+] [SDS] | inhibit the enzyme activity | 92.02 |  |
| [Zn+2] [Zn^2+] | promote the enzyme activity | 109.04 |  |
| B1 |  |  | enzyme activity retained ([1]; 4° C. for 4 days at pH 7.0-10.0): 80%; enzyme activity retained ([1]; 30° C. for 24 hours): 80%; optimum pH ([2]; 50° C., pH 3.0-10.0, 0.3% (w/v) sodium alginate): 9.0; optimum reaction temperature ([2]; pH 7.0, temperature range of 30-100° C., 0.3% (w/v) sodium alginate): 50 °C; degradation of polysaccharides ([3]; 0.3% (w/v) sodium alginate, poly M, poly G, 0.6 U, 30° C., pH 7.0, 12 hours, HPLC): could degrade all three kinds of polysaccharides; mode of digestion ([3]; HPLC product analysis): endo-type alginate lyase; polymerization degree of unsaturated oligosaccharide products ([3]; degradation of sodium alginate): 2-8; unsaturated disaccharides as share of the total unsaturated oligosaccharide products ([3]; degradation of sodium alginate): about 70%; substrate specificity [4]: poly M specific alginate lyase |
